According to the supplement of paper PMC10307832:

How the values were obtained:
Assay in all cases: relative viability (nuclei count vs DMSO), 5 days (fraction); higher = more cells survive
Tosedostat + Pictilisib = compound: CC(C)C[C@@H](C(=O)N[C@H](C(=O)OC1CCCC1)c1ccccc1)[C@H](O)C(=O)NO [Tosedostat] + CS(=O)(=O)N1CCN(Cc2cc3nc(-c4cccc5[nH]ncc45)nc(N4CCOCC4)c3s2)CC1 [Pictilisib] (partner 1 µM)
Outline: (§1)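 Relative viability divides the nuclei count in treated wells by that in vehicle wells. Lung cancer cell lines were seeded in 1536-well plates, dosed by pin tool the next day, and fixed and stained after 5 days in one step with final 0.05% Triton X-100, 1% formaldehyde and 1 ug/ml Hoechst. Dosing was a single drug or a fixed anchor-drug dose plus five library-drug doses (not always all listed) in √10 steps, and values are medians of duplicate plates imaged at 4×.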

[1] = compound: CC1=NN=C(O1)C2=NN=C(C=C2)N3CCC(CC3)OC4=C(C=CC(=C4)F)Cl + CC(=O)Nc1cccc(-n2c(=O)n(C3CC3)c(=O)c3c(Nc4ccc(I)cc4F)n(C)c(=O)c(C)c32)c1 [Trametinib] (partner 0.02 µM)
Outline: as §1

Tosedostat + Decitabine = compound: CC(C)C[C@@H](C(=O)N[C@H](C(=O)OC1CCCC1)c1ccccc1)[C@H](O)C(=O)NO [Tosedostat] + Nc1ncn([C@H]2C[C@H](O)[C@@H](CO)O2)c(=O)n1 [Decitabine] (partner 2 µM)
Outline: as §1

[2] = compound: CC1=NN=C(O1)C2=NN=C(C=C2)N3CCC(CC3)OC4=C(C=CC(=C4)F)Cl + NC(=O)Nc1cc(-c2cccc(F)c2)sc1C(=O)N[C@H]1CCCNC1 [AZD7762] (partner 0.2 µM)
Outline: as §1

| Cell Line | relative viability (Tosedostat + Pictilisib; first compound 0.02 µM) | relative viability (Tosedostat + Pictilisib; first compound 0.06325 µM) | relative viability (Tosedostat + Pictilisib; first compound 0.2 µM) | relative viability (Tosedostat + Pictilisib; first compound 0.6325 µM) | relative viability (Tosedostat + Pictilisib; first compound 2 µM) | relative viability ([1]; first compound 0.253 µM) | relative viability ([1]; first compound 0.8 µM) | relative viability ([1]; first compound 2.53 µM) | relative viability ([1]; first compound 8 µM) | relative viability (Tosedostat + Decitabine; first compound 0.02 µM) | relative viability (Tosedostat + Decitabine; first compound 0.06325 µM) | relative viability (Tosedostat + Decitabine; first compound 0.2 µM) | relative viability (Tosedostat + Decitabine; first compound 0.6325 µM) | relative viability (Tosedostat + Decitabine; first compound 2 µM) | relative viability ([2]; first compound 0.253 µM) | relative viability ([2]; first compound 0.8 µM) | relative viability ([2]; first compound 2.53 µM) | relative viability ([2]; first compound 8 µM) |
| --- | --- | --- | --- | --- | --- | --- | --- | --- | --- | --- | --- | --- | --- | --- | --- | --- | --- | --- |
| 201T | 0.669 | 0.682 | 0.788 | 0.78 | 0.762 | 0.414 | 0.425 | 0.405 | 0.384 | 0.835 | 0.894 | 0.879 | 0.891 | 0.846 | 0.447 | 0.481 | 0.531 | 0.505 |
| A549 | 0.606 | 0.513 | 0.495 | 0.469 | 0.521 | – | – | – | – | 0.264 | 0.337 | 0.24 | 0.193 | 0.292 | – | – | – | – |
| A-427 | 0.736 | 0.643 | 0.727 | 0.662 | 0.564 | 0.818 | 0.711 | 0.869 | 0.825 | 0.562 | 0.594 | 0.629 | 0.506 | 0.55 | 0.726 | 0.526 | 0.824 | 0.724 |
| ABC-1 | 1 | 0.622 | 0.616 | 0.722 | 0.535 | – | – | – | – | 1.17 | 1.13 | 1.27 | 1.19 | 1.05 | 0.852 | 0.712 | 0.597 | 0.45 |
| BEN | 0.679 | 0.622 | 0.556 | 0.752 | 0.804 | 1.1 | 1.12 | 1.03 | 1.17 | 0.79 | 0.761 | 0.676 | 0.734 | 0.665 | 0.681 | 0.752 | 0.878 | 0.729 |
| CAL-12T | 0.471 | 0.417 | 0.422 | 0.484 | 0.423 | 0.337 | 0.313 | 0.255 | 0.217 | – | – | – | – | – | 0.637 | 0.586 | 0.606 | 0.479 |
| COR-L23 | 0.955 | 0.784 | 0.666 | 0.649 | 0.745 | 0.498 | 0.396 | 0.529 | 0.444 | 0.465 | 0.411 | 0.393 | 0.405 | 0.37 | – | – | – | – |
| COR-L 105 | 0.451 | 0.414 | 0.379 | 0.319 | 0.356 | 0.488 | 0.424 | 0.414 | 0.429 | 0.747 | 0.622 | 0.681 | 0.537 | 0.596 | – | – | – | – |
| Calu-6 | 0.975 | 0.87 | 0.778 | 0.757 | 0.651 | – | – | – | – | – | – | – | – | – | – | – | – | – |
| ChaGo-K-1 | 1.1 | 0.813 | 0.754 | 0.812 | 0.638 | 0.649 | 0.555 | 0.613 | 0.57 | 0.487 | 0.526 | 0.543 | 0.463 | 0.419 | 0.588 | 0.529 | 0.705 | 0.594 |
| EBC-1 | 0.361 | 0.417 | 0.232 | 0.266 | 0.281 | – | – | – | – | – | – | – | – | – | – | – | – | – |
| EKVX | 0.45 | 0.423 | 0.444 | 0.398 | 0.431 | 0.26 | 0.254 | 0.26 | 0.286 | 0.37 | 0.34 | 0.292 | 0.313 | 0.332 | 0.517 | 0.434 | 0.465 | 0.535 |
| EMC-BAC-2 | 0.614 | 0.544 | 0.504 | 0.544 | 0.526 | 0.873 | 0.736 | 0.791 | 0.65 | 1.04 | 0.964 | 0.971 | 0.877 | 0.865 | 1.07 | 0.929 | 1.1 | 1.03 |
| EPLC-272H | 0.416 | 0.337 | 0.284 | 0.3 | 0.241 | 0.267 | 0.247 | 0.291 | 0.309 | 0.364 | 0.37 | 0.363 | 0.328 | 0.254 | 0.236 | 0.369 | 0.268 | 0.197 |
| H3255 | 0.659 | 0.45 | 0.409 | 0.42 | 0.533 | 0.407 | 0.491 | 0.573 | 0.483 | 0.595 | 0.559 | 0.553 | 0.531 | 0.645 | 0.633 | 0.663 | 0.628 | 0.639 |
| HARA | 0.375 | 0.432 | 0.314 | 0.376 | 0.348 | 0.438 | 0.369 | 0.448 | 0.322 | 0.583 | 0.583 | 0.427 | 0.442 | 0.457 | 0.416 | 0.305 | 0.387 | 0.337 |
| HCC-15 | 0.777 | 0.731 | 0.638 | 0.572 | 0.501 | 0.404 | 0.399 | 0.376 | 0.385 | 0.675 | 0.649 | 0.591 | 0.446 | 0.433 | 0.733 | 0.571 | 0.639 | 0.608 |
